Legend:
[1] = human gut metagenome, 24 h, 2 µM
[2] = (§1) The drug is tested on WLS-052 corresponding to human gut metagenome with ENA study accession number: PRJEB37062 and ENA sample accession number: ERS12561747 for biotransformation under anaerobic condition. The drug concentrations were measured over 9 timepoints collected between 0 and 24 hours of incubation by liquid-chromatography-coupled mass spectrometry (LC–MS); settings: 2 µM
[3] = human gut metagenome, 24 h, 2 µM; remark: listed apart in the source
[4] = as §1, with “Z-019” for “WLS-052”, “rat” for “human”, “ERS12561818” for “ERS12561747”; settings: 2 µM
[5] = as §1, with “WLS-170” for “WLS-052”, “ERS12561762” for “ERS12561747”; settings: 2 µM
[6] = human gut metagenome, 24 h, 2 µM; remark: listed apart in the source
[7] = as §1, with “WLS-069” for “WLS-052”, “ERS12561748” for “ERS12561747”; settings: 2 µM
[8] = human gut metagenome, 24 h, 2 µM; remark: listed apart in the source
[9] = as §1, with “Z-024” for “WLS-052”, “pig” for “human”, “ERS12561823” for “ERS12561747”; settings: 2 µM
[10] = as §1, with “WLS-073” for “WLS-052”, “ERS12561749” for “ERS12561747”; settings: 2 µM
[11] = as §1, with “Z-007” for “WLS-052”, “rat” for “human”, “ERS12561807” for “ERS12561747”; settings: 2 µM
[12] = human gut metagenome, 24 h, 2 µM; remark: listed apart in the source
[13] = as §1, with “Z-017” for “WLS-052”, “mouse” for “human”, “ERS12561816” for “ERS12561747”; settings: 2 µM
[14] = as §1, with “Z-016” for “WLS-052”, “mouse” for “human”, “ERS12561815” for “ERS12561747”; settings: 2 µM
[15] = human gut metagenome, 24 h, 2 µM; remark: listed apart in the source
[16] = human gut metagenome, 24 h, 2 µM; remark: listed apart in the source
[17] = human gut metagenome, 24 h, 2 µM; remark: listed apart in the source
[18] = human gut metagenome, 24 h, 2 µM; remark: listed apart in the source
[19] = human gut metagenome, 24 h, 2 µM; remark: listed apart in the source
[20] = human gut metagenome, 24 h, 2 µM; remark: listed apart in the source
Note: call rule not given here.

Row | SMILES | Bacterial Biotransformation [1] | Bacterial Biotransformation [2] | Bacterial Biotransformation [3] | Bacterial Biotransformation [4] | Bacterial Biotransformation [5] | Bacterial Biotransformation [6] | Bacterial Biotransformation [7] | Bacterial Biotransformation [8] | Bacterial Biotransformation [9] | Bacterial Biotransformation [10] | Bacterial Biotransformation [11] | Bacterial Biotransformation [12] | Bacterial Biotransformation [13] | Bacterial Biotransformation [14] | Bacterial Biotransformation [15] | Bacterial Biotransformation [16] | Bacterial Biotransformation [17] | Bacterial Biotransformation [18] | Bacterial Biotransformation [19] | Bacterial Biotransformation [20]
1 | CCCN(CCC)CCc1cccc2c1CC(=O)N2 [ROPINIROLE] | Compound NOT metabolized | Compound NOT metabolized | Compound NOT metabolized | Compound NOT metabolized | Compound metabolized | Compound NOT metabolized | Compound NOT metabolized | Compound NOT metabolized | Compound NOT metabolized | Compound NOT metabolized | Compound NOT metabolized | Compound NOT metabolized | Compound NOT metabolized | Compound NOT metabolized | Compound NOT metabolized | Compound NOT metabolized | Compound NOT metabolized | Compound NOT metabolized | Compound NOT metabolized | Compound NOT metabolized
2 | O=C(O)CCC(=O)O.O=C(O[C@H]1CN2CCC1CC2)N1CCc2ccccc2[C@@H]1c1ccccc1 [SOLIFENACIN SUCCINATE] | Compound metabolized | Compound NOT metabolized | Compound NOT metabolized | Compound NOT metabolized | Compound NOT metabolized | Compound metabolized | Compound metabolized | Compound metabolized | Compound metabolized | Compound metabolized | Compound NOT metabolized | Compound NOT metabolized | Compound NOT metabolized | Compound NOT metabolized | Compound NOT metabolized | Compound NOT metabolized | Compound metabolized | Compound NOT metabolized | Compound NOT metabolized | Compound metabolized
3 | O=C(CCCN1CCC2(CC1)C(=O)NCN2c1ccccc1)c1ccc(F)cc1 [SPIPERONE] | Compound NOT metabolized | Compound NOT metabolized | Compound metabolized | Compound NOT metabolized | Compound metabolized | Compound NOT metabolized | Compound metabolized | Compound NOT metabolized | Compound NOT metabolized | Compound NOT metabolized | Compound NOT metabolized | Compound NOT metabolized | Compound NOT metabolized | Compound NOT metabolized | Compound NOT metabolized | Compound NOT metabolized | Compound NOT metabolized | Compound NOT metabolized | Compound metabolized | Compound NOT metabolized
4 | O=C1C(CC[S+]([O-])c2ccccc2)C(=O)N(c2ccccc2)N1c1ccccc1 (stereo not given) [SULFINPYRAZONE] | Compound metabolized | Compound metabolized | Compound metabolized | Compound NOT metabolized | Compound metabolized | Compound metabolized | Compound metabolized | Compound metabolized | Compound metabolized | Compound metabolized | Compound NOT metabolized | Compound metabolized | Compound NOT metabolized | Compound NOT metabolized | Compound metabolized | Compound NOT metabolized | Compound metabolized | Compound metabolized | Compound metabolized | Compound metabolized

Source: ChEMBL document CHEMBL5724914, “Linking interpersonal differences in gut microbiota composition and drug biotransformation activity” (2024)
